Measurements as given in patent US20090004474A1, “Lyocell fibers with anti-microbial activity” (Weyerhaeuser Co., priority 2007, published 2009).

Tests used:
C. Albicans = assay: Growth medium study, antimicrobial test of meltblown fibers against C. albicans; type: cell-based; details: compared to a control at the same time
Protocol: Growth Medium Study Procedure
C. albicans: Prep Culti-Loop in 1.0 ml of sterile dilute PBS
ATCC 10231 Solution for 10 min. Streak onto SDA and grow for 24 hours @ 35 C
a. Prepare 9.0 ml dilute PBS tubes. Remove (wash) each culture organism from slants and add to PBS tubes.
Adjust so the turbidity of the culture matches a 0.5 McFarland solution (In BAM Media Pages). This is the stock culture solution. (S. aureus & E. coli, C. albicans.)
c. For C. albicans add 1.0 ml stock culture solution to 1.0 liter of MGM. (about […] final population)
6. Specialized MGM solutions for each Organism: • a. S. aureus: 94.4 ml stock PBS+849.6 DI water; adjust pH & sterilize. (or […] pre-diluted PBS Stock solution). (2X+2)200=2000 ml for 4. • ADD: 1.0 ml MSM • 50 ml BME vitamins. • 5 ml 1% Peptone. • 1.0 ml diluted Bacterial Culture (pre-made) • b. E. coli: 94.9 ml stock PBS+854.1 ml DI water; adjust pH & sterilize. (or 949 ml pre-diluted PBS Stock solution). (2X+2)200=2000 ml for 4. • ADD: 1.0 ml MSM • 50 ml BME vitamins. • 1.0 ml diluted Bacterial Culture (pre-made) • c. C. albicans: 92.9 ml stock PBS+836.1 ml DI water; adjust pH & sterilize. (or 929 ml pre-diluted PBS Stock solution). (2X+2)200=2000 ml for 4. • ADD: 1.0 ml MSM • 50 ml BME vitamins. • 20 ml 10% Peptone. • 10 ml 10% (NH4)2SO4 • 1.0 ml of Undiluted Bacterial Culture (pre-made) 7. Product to test:
a. […]

E coli = assay: Growth medium study, antimicrobial test of meltblown fibers against E. coli; type: cell-based; details: compared to a control at the same time; for reduction of E. coli colony forming units at twenty four hours compared to a control: 24 hours
Protocol: E. coli: Prep Culti-Loop in 1.0 ml sterile TSB for 10 min.
ATCC 8739 Streak to TSA slant and grow for 24 hours @ 35 C
For S. aureus and E. coli, make 1:100 dilution of stock culture solution, and add 1.0 ml of the diluted solution to 1.0 liter of MGM.
S. aureus: 94.4 ml stock PBS+849.6 DI water; adjust pH & sterilize. (or 994 ml pre-diluted PBS Stock solution). (2X+2)200=2000 ml for 4. • ADD: 1.0 ml MSM • 50 ml BME vitamins. • 5 ml 1% Peptone. • 1.0 ml diluted Bacterial Culture (pre-made) • b. E. coli: 94.9 ml stock PBS+854.1 ml DI water; adjust pH & sterilize. (or 949 ml pre-diluted PBS Stock solution). (2X+2)200=2000 ml for 4. • ADD: 1.0 ml MSM • 50 ml BME vitamins. • 1.0 ml diluted Bacterial Culture (pre-made) • c. C. albicans: 92.9 ml stock PBS+836.1 ml DI water; adjust pH & sterilize. (or 929 ml pre-diluted PBS Stock solution). (2X+2)200=2000 ml for 4. • ADD: 1.0 ml MSM • 50 ml BME vitamins. • 20 ml 10% Peptone. • 10 ml 10% (NH4)2SO4 • 1.0 ml of Undiluted Bacterial Culture (pre-made) 7. Product to test:
Prep enough sterile 250 Plastic Bottles to handle 2 repetitions of each organism plus pos. and neg. control. (45 flasks are needed to test 6 products.) • B. Label all Plastic Bottles with organism (Staph, E. coli, C alb.), plus Sequential Number (W-1,W-2 . . . , W-45). • c. Add 2.0 gm of each product to be tested to each Plastic Bottle (or a sterile blender if Sample is not soft), then add 200 ml of inoculated MGM. Incubate, with shaking (in wire milk case—attached to shaker waterbath—plus one or two plastic cases) for 4 and 24 hours at 37 C Run duplicate tests. […] Run two bottles for each organism containing 200 ml of inoculated MGM, without Weyerhaeuser Sample. These are Blanks. • f. Run positive controls, TSB in place of Sample (see below) for each organism type. […] Incubation and counting. • a. […]

**Q.** Which “reduction of C. albicans count at four hours compared to a control” value (C. Albicans; 4 hours) does the source give for `[O]=[Zn]` [Zinc oxide] here?
**A.** Its value is “at least ninety five”.

**Q.** And the “reduction of C. albicans count at twenty four hours compared to a control” value (C. Albicans; 24 hours)?
**A.** The value was “at least ninety five”.

**Q.** What about the “reduction of E. coli colony forming units at twenty four hours compared to a control” value (E coli) of the same compound?
**A.** The value was “at least ninety five”.

**Q.** `O=C([O-])[O-].[Ca+2]` [calcium carbonate, Calcium carbonate] was tested. Which “reduction of E. coli colony forming units at four hours compared to a control” value (E coli; 4 hours) did it give?
**A.** The value was “more than ninety five”.

**Q.** What about the “reduction of E. coli colony forming units at twenty four hours compared to a control” value (E coli) of the same compound?
**A.** Its value is “more than ninety five”.
